Series [1] can be described thus: Nonclinical pharmacokinetic studies of 4-CNAB. It counts as in vivo. To be noted: mice, rats and monkeys. As for the experimental part: The present invention comprising compositions of insulin and the delivery agent 4-CNAB was evaluated for safety and toxicity in a nonclinical program that included pharmacological screening, pharmacokinetic profiling, and toxicity assessments in rats and monkeys.

Series [2] is described as follows: Example 5: safety and tolerability. To be noted: 4-CNAB alone, oral 400-2000 mg.
Source text: Safety assessments included physical examinations, medical history, vital signs, 12-lead electrocardiogram (ECG) monitoring, laboratory evaluations and checking for adverse events. Activity parameters included blood glucose, insulin, C-peptide, and 4-CNAB plasma concentration measurements.
The next series has as its system blood glucose. The arrangement: species or system Sprague-Dawley rats. To be noted: rat, in vivo, 0.05 mg/kg. As for the experimental part:
An aqueous insulin stock solution was prepared (at pH 7.5) with a final insulin concentration of approximately 15 mg/mL. Delivery agents were dissolved in water with subsequent additions of sodium hydroxide or hydrochloric acid to both dissolve the delivery agent and to titrate the dosing solution to pH 7.5-8.5. The required amount of insulin was added to the delivery agent solution before dosing.
Insulin levels in the rats were assayed using the Insulin ELISA Test Kit [DSL, Webster, Tex. Cat. #DSL-10-1600]. The assay covered the range 3.125 to 250 mU/mL. Blood glucose levels in the rats were measured using a glucometer, One-Touch Basic Blood Glucose Monitoring System, manufactured by Lifescan Inc. (Milpitas, Calif.).
A total of 60 male Sprague-Dawley rats were fasted for 24 hours and then anesthetized with Thorazine (1.5 mg/kg, im) and Ketamine (44 mg/kg, im). They were then divided into the following 5 treatment groups: • 1. H2O (p.o. 1 mL/kg) • 2. Carrier (p.o., 1 mL/kg; 200 mg/kg) • 3. Insulin (p.o., 1 ml/kg; 0.5 mg/kg) • 4. Insulin and Carrier (p.o., 1 ml/kg; 0.5 mg/kg Insulin and 200 mg/kg 1182) • 5. Insulin (s.c., 0.05 mg/kg) • There were twelve animals per group, with three being sacrificed at 30, 60, 120 and 180 minutes. For serum insulin and blood glucose monitoring, 0.4 mL of blood was drawn from the tail artery. […]

Consider `O=C(O)CCCNC(=O)c1ccc(Cl)cc1O` [4-CNAB, 4-[(4-chloro, 2-hydroxybenzoyl)amino]butanoic acid], for which the “Absorption after oral administration” value in series [1] was “absorbed rapidly following oral administration, and subsequently cleared from the body”. Moreover, the Tolerability result in series [2] is listed as “well tolerated”. Turning to “SC insulin: human regular insulin injected subcutaneously (Humulin R or equivalent; Calbiochem insulin in the rat studies)”, the “Delay of tmax vs oral” value in the series on blood glucose is “about 15 minutes”.
